In patent US20060002932A1, “Methods and compositions for enhancement of immunity by in vivo depletion of immunosuppressive cell activity” (priority 2004, published 2006):
Several values for one entry are separate records, joined by “and”; a condition that tells them apart may be missing. Equal entries are not always repeated. Entries after “also recorded” stand apart in the source; their conditions may differ.

What was measured:
[1] = system: PBMC; assay: MTT viability of PBMC (bystander toxicity); settings: DAB389IL-2 5 nM
[2] = system: CD4^+/CD25^+ T cells of study subjects; assay: Treg functional evaluation (suppression of anti-CD3/CD28 activated indicator T cells); assay type: in vivo, human; settings: CD4^+/CD25^+ T cells isolated prior to vs 4 days after treatment
Protocol: The suppressive activity of Treg isolated from PBMC of study subjects prior to and 4 days after […] administration was analyzed, as described previously^25. CD4^+/CD25^+ T cells were isolated from the PBMC of study subjects using magnetic bead separation techniques. Cells were washed with PBS, resuspended in complete RPMI 1640 medium, and placed into 96-well round bottom plates pre-coated with anti-CD3/CD28 antibodies (0.4 μg/well) (Caltag). CD4^+/CD25^− cells were plated at 2.0×10^4/well alone or in combination with CD4^+/CD25^+ cells in triplicate wells at a ratio of 1:2 (CD4^+/CD25^−:CD4^+CD25^+). On day 5, 1 μCi of ^3H thymidine was added for the final 16 hr of the cultures. Cells were then harvested on glass fiber filters and assessed for uptake of radiolabeled thymidine.

[3] = system: antigen-specific CTL from PBMC; assay: 51Cr cytotoxicity assay of CTL stimulated from DAB389IL-2-depleted PBMC; assay type: cell-based, human
[4] = system: CD4^+CD25^int memory T-cell pool; settings: after DAB389IL-2 administration; fluM1, CMV, tetanus toxoid
[5] = system: CD3+, CD4+, CD8^+ T cells, B cells, monocytes/macrophages, NK cells; assay: Relative numbers of leukocyte subsets before and after DAB389IL-2; assay type: in vivo, human
Protocol: Using these methods, the degree of regulatory T cell depletion efficacy in the four subjects treated on the clinical protocol was determined.

[6] = system: tumor-specific T cells; assay: Interferon-γ ELISPOT of vaccine-induced tumor-specific T cells in patients; assay type: in vivo, human
Protocol: PBMC were cultured overnight in RPMI 1640 medium supplemented with 10% FCS. […] After washing, spots were counted using an automated Zeiss KS Elispot Compact reader (Carl Zeiss Inc., Minneapolis, Minn.).
In order to determine whether DAB389IL-2-mediated regulatory T cell depletion is capable of augmenting vaccine-induced CTL responses in vivo, Interferon-γ ELISPOT analysis was used to determine the frequencies of vaccine-induced, tumor-specific T cells from PBMC samples collected prior to (white bars) and two weeks after (grey bars) the third vaccination (study week 8). Purified CD8^+ T cells were isolated from pre- and post-vaccination PBMCs and were cultured overnight with tumor RNA transfected DC targets. As controls, PBMC RNA or benign renal epithelium (RE)-derived RNA-transfected DCs were used for short-term antigenic stimulation. Visible spots were then counted using an automated ELISPOT reader. […] In contrast, a significant increase of tumor-specific T cells was consistently observed in the treated subjects after vaccination. […]
Pre- and post-treatment T-cell analysis was performed by Interferon-γ ELISPOT on all patients who completed immunotherapy. Increases of antigen-specific CD4^+ and CD8^+ T cells after vaccination were compared using the Wilcoxon matched-pairs signed rank test, analyzing the null hypothesis that the rates of change in T-cell response were equivalent prior to and after therapy. A two-sided p-value of <0.05 was considered statistically significant.
In order to determine whether DAB389IL-2-mediated Treg depletion is capable of augmenting vaccine-induced CD8^+ and CD4^+ T-cell responses in cancer patients, Interferon-γ ELISPOT analyses were performed to determine the frequencies of vaccine-induced, tumor-specific T cells from PBMC samples collected before and two weeks after the third vaccination. CD8^+ and CD4^+ T cells were isolated from pre- and post-vaccination PBMC and cultured overnight with tumor RNA-transfected DC targets. As controls, autologous PBMC RNA or autologous benign renal epithelium (RE)-derived RNA-transfected DC were used for short-term antigenic stimulation. As exemplified by the 3 study subjects shown in FIG. 10A, only background levels of PBMC-specific T cells were observed before (white bars) or after vaccination (grey bars).

[7] = system: renal tumor-specific CD4^+ T cells; assay: Cytokine profile of vaccine-induced CD4+ T cells (ELISPOT, Th1/Th2 bead array); assay type: in vivo, human
[8] = 6 RCC patients, DAB389IL-2 plus RCC RNA-transfected DC
[9] = per patient, DAB389IL-2 4 days prior to tumor RNA-transfected DC vaccination

Substance: denileukin diftitox [DAB389IL-2]
- PBMC viability over time [1]: no significant differences in PBMC viability
- Treg-mediated immunosuppressive activity [2]: abrogation of Treg-mediated immunosuppressive activity in vivo
- improvement of antigen-specific killing ([3]; MART-1 peptide-pulsed DC as stimulators, DAB389IL-2 5 nM): only modest, statistically insignificant improvement of antigen-specific killing
- lytic activity of CTL stimulated from Treg-depleted vs non-depleted PBMC ([3]; mRNA-transfected DC stimulators (hTERT, MART-1)): higher lytic activity against their cognate targets; also recorded: significantly higher lytic activity
- improvement of CTL responses ([3]; recall antigen fluM1, or peptide-loaded DC as stimulators): ineffective in improving CTL responses
- antigen-specific proliferative reactivities against recall antigens [4]: unchanged reactivities
- change in CD8^+/CD25^+ or CD19^+/CD25^+ cells ([5]; one subject analyzed): no decrease
- change in relative number of CD3+, CD4+, CD8+ T cells, B cells, monocytes/macrophages and NK cells ([5]; prior to and after treatment): no significant changes
- median increase in tumor-specific CD4^+ T cells [6, 8]: 7.2 fold
- median increase in tumor-specific CD8^+ T cells [6, 8]: 7.9 fold
- tumor-specific T-cell response after DAB389IL-2 alone ([6]; DAB389IL-2 only, no vaccine): did not increase a tumor-specific CTL response in vivo; also recorded: did not significantly increase
- tumor-specific (CD8^+) T cells vs vaccination alone ([6]; DAB389IL-2 plus vaccination compared with vaccine alone): significantly higher numbers of tumor-specific CD8^+ T cells
- increase in tumor-specific CTL frequencies ([6]; Example 2, subjects receiving combined treatment): up to 16 fold
- CD4^+ T-cell responses vs vaccination alone ([6]; combined therapy, RCC patients, p=0.055): trend towards improved CD4^+ T-cell responses
- ELISPOT (Fold increase after vaccination) CD4^+ [6, 9]: 7.6 fold and 6.3 fold and 2.2 fold and 9.7 fold and 31.0 fold and 6.8 fold and 4.5 fold
- ELISPOT (Fold increase after vaccination) CD8^+ [6, 9]: 16.0 fold and 12.5 fold and 5.4 fold and 7.4 fold and 7.8 fold (2×) and 8.0 fold
- longitudinal vaccine-induced CD8^+ T-cell response ([6]; subject 02-DAB vs 11-RCC): significantly enhanced and also prolonged CD8^+ T-cell response
- Th1/Th2 cytokine secretion by vaccine-induced T cells (bead array) ([7]; 18 hours stimulation with RCC RNA-transfected DC): secretion of Th-1 type cytokines (IL-2, Interferon-γ, or TNF-α), but not Th-2 type cytokines
- Interferon-γ / IL-4 secreting renal tumor-specific CD4 T cells (ELISPOT) ([7]; one subject, DAB389IL-2 followed by vaccination): stimulation of Interferon-γ, but not IL-4-secreting renal tumor-specific CD4 T cells
